{"source": "patent US8802597B2", "about": "“Herbicidal pyrimidines” (E I du Pont de Nemours and Company, priority 2003, dated 2014)", "type_in_all_cases": "in vivo", "key": {"kochia (Kochia scoparia)": {"tested_on": "kochia (Kochia scoparia)", "test": "Test C pre/postemergence", "settings": "Bassia scoparia, pre-emergence, Preemergence, 125 g ai/ha; scale 0 to 100; read-out: Plant response rating, Kochia", "in_short": "(§1)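 Visual injury ratings, 0 (no effect) to 100 (complete control), made 12 to 14 days after treatment by comparison with untreated controls. Greenhouse plants received test chemical in a surfactant-containing non-phytotoxic solvent, either preemergence on planted seeds or postemergence at the 1- to 4-leaf stage.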"}, "[1]": {"tested_on": "morningglory (Ipomoea coccinea)", "test": "Test C pre/postemergence", "settings": "Ipomoea; for pest or weed control at 16 g/ha: 16 g ai/ha; for pest or weed control at 31 g/ha: 31 g ai/ha; for pest or weed control at 62 g/ha: 62 g ai/ha; for pest or weed control at 125 g/ha: 125 g ai/ha", "in_short": "as §1"}, "[2]": {"tested_on": "pigweed (Amaranthus retroflexus)", "test": "Test C pre/postemergence", "settings": "Amaranthus retroflexus; for pest or weed control at 16 g/ha: 16 g ai/ha; for pest or weed control at 31 g/ha: 31 g ai/ha; for pest or weed control at 62 g/ha: 62 g ai/ha; for pest or weed control at 125 g/ha: 125 g ai/ha", "in_short": "as §1"}, "soybean (Glycine max)": {"tested_on": "soybean (Glycine max)", "test": "Test C pre/postemergence", "settings": "Glycine max; for plant injury at 16 g/ha: 16 g ai/ha; for plant injury at 62 g/ha: 62 g ai/ha; for plant injury at 125 g/ha: 125 g ai/ha", "in_short": "as §1"}, "[3]": {"tested_on": "woolly cupgrass (Eriochloa villosa)", "test": "Test C pre/postemergence", "settings": "Eriochloa villosa; for pest or weed control at 16 g/ha: 16 g ai/ha; for pest or weed control at 31 g/ha: 31 g ai/ha; for pest or weed control at 62 g/ha: 62 g ai/ha; for pest or weed control at 125 g/ha: 125 g ai/ha", "in_short": "as §1"}, "[4]": {"tested_on": "yellow nutsedge (Cyperus esculentus)", "test": "Test C pre/postemergence", "settings": "Cyperus; for pest or weed control at 16 g/ha: 16 g ai/ha; for pest or weed control at 31 g/ha: 31 g ai/ha; for pest or weed control at 62 g/ha: 62 g ai/ha; for pest or weed control at 125 g/ha: 125 g ai/ha", "in_short": "as §1"}, "[5]": {"tested_on": "chickweed (Stellaria media)", "test": "Test C postemergence", "settings": "Stellaria media, post-emergence", "in_short": "as §1"}, "[6]": {"settings": "post-emergence, Postemergence, read-out: Plant response rating (scale of 0 to 100), Morningglory"}, "[7]": {"settings": "post-emergence, Postemergence, scale 0 to 100 (0 no effect, 100 complete control), read-out: Morningglory plant response rating"}, "[8]": {"settings": "pre-emergence, Preemergence, scale 0 to 100, 0 no effect, 100 complete control, read-out: Plant response rating, Morningglory"}, "[9]": {"settings": "post-emergence, Postemergence, read-out: Plant response rating (scale of 0 to 100), Pigweed"}, "[10]": {"settings": "post-emergence, Postemergence, scale 0 to 100 (0 no effect, 100 complete control), read-out: Pigweed plant response rating"}, "[11]": {"settings": "pre-emergence, Preemergence, scale 0 to 100, 0 no effect, 100 complete control, read-out: Plant response rating, Pigweed"}, "[12]": {"settings": "post-emergence, Postemergence, scale 0 to 100 (0 no effect, 100 complete control), read-out: Soybean plant response rating"}, "[13]": {"settings": "pre-emergence, Preemergence, scale 0 to 100, 0 no effect, 100 complete control, read-out: Plant response rating, Soybean"}, "[14]": {"settings": "post-emergence, Postemergence, read-out: Plant response rating (scale of 0 to 100), Cupgrass, Woolly"}, "[15]": {"settings": "post-emergence, Postemergence, scale 0 to 100 (0 no effect, 100 complete control), read-out: Cupgrass, Woolly plant response rating"}, "[16]": {"settings": "pre-emergence, Preemergence, scale 0 to 100, 0 no effect, 100 complete control, read-out: Plant response rating, Cupgrass, Woolly"}, "[17]": {"settings": "post-emergence, Postemergence, read-out: Plant response rating (scale of 0 to 100), Nutsedge, Yellow"}, "[18]": {"settings": "post-emergence, Postemergence, scale 0 to 100 (0 no effect, 100 complete control), read-out: Nutsedge, Yellow plant response rating"}, "[19]": {"settings": "pre-emergence, Preemergence, scale 0 to 100, 0 no effect, 100 complete control, read-out: Plant response rating, Nutsedge, Yellow"}}, "note": "Read-outs that look alike come from different tables or passages of the source."}
{"smiles": "COC(=O)c1nc(C2CC2)nc(N)c1F", "note": "[Compound 25]", "values": [{"measurement": "pest or weed control at 125 g/ha", "setting": "kochia (Kochia scoparia)", "value": 70, "unit": "%"}, {"measurement": "pest or weed control at 16 g/ha", "setting": "[1]; [6]", "value": 90, "unit": "%"}, {"measurement": "pest or weed control at 31 g/ha", "setting": "[1]; [6]", "value": 90, "unit": "%"}, {"measurement": "pest or weed control at 62 g/ha", "setting": "[1]; [7]", "value": 90, "unit": "%"}, {"measurement": "pest or weed control at 125 g/ha", "setting": "[1]; [7]", "value": 90, "unit": "%"}, {"measurement": "pest or weed control at 16 g/ha", "setting": "[1]; [8]", "value": 0, "unit": "%"}, {"measurement": "pest or weed control at 31 g/ha", "setting": "[1]; [8]", "value": 0, "unit": "%"}, {"measurement": "pest or weed control at 62 g/ha", "setting": "[1]; [8]", "value": 50, "unit": "%"}, {"measurement": "pest or weed control at 125 g/ha", "setting": "[1]; pre-emergence, Preemergence, scale 0 to 100, read-out: Plant response rating, Morningglory", "value": 90, "unit": "%"}, {"measurement": "pest or weed control at 16 g/ha", "setting": "[2]; [9]", "value": 50, "unit": "%"}, {"measurement": "pest or weed control at 31 g/ha", "setting": "[2]; [9]", "value": 50, "unit": "%"}, {"measurement": "pest or weed control at 62 g/ha", "setting": "[2]; [10]", "value": 80, "unit": "%"}, {"measurement": "pest or weed control at 125 g/ha", "setting": "[2]; [10]", "value": 100, "unit": "%"}, {"measurement": "pest or weed control at 16 g/ha", "setting": "[2]; [11]", "value": 0, "unit": "%"}, {"measurement": "pest or weed control at 31 g/ha", "setting": "[2]; [11]", "value": 30, "unit": "%"}, {"measurement": "pest or weed control at 62 g/ha", "setting": "[2]; [11]", "value": 35, "unit": "%"}, {"measurement": "pest or weed control at 125 g/ha", "setting": "[2]; pre-emergence, Preemergence, scale 0 to 100, read-out: Plant response rating, Pigweed", "value": 85, "unit": "%"}, {"measurement": "plant injury at 16 g/ha", "setting": "soybean (Glycine max); post-emergence, Postemergence, read-out: Plant response rating (scale of 0 to 100), Soybean", "value": 40, "unit": "%"}, {"measurement": "plant injury at 31 g/ha", "setting": "soybean (Glycine max); post-emergence, Postemergence, 31 g ai/ha, read-out: Plant response rating (scale of 0 to 100), Soybean", "value": 90, "unit": "%"}, {"measurement": "plant injury at 62 g/ha", "setting": "soybean (Glycine max); [12]", "value": 90, "unit": "%"}, {"measurement": "plant injury at 125 g/ha", "setting": "soybean (Glycine max); [12]", "value": 90, "unit": "%"}, {"measurement": "plant injury at 16 g/ha", "setting": "soybean (Glycine max); [13]", "value": 30, "unit": "%"}, {"measurement": "plant injury at 62 g/ha", "setting": "soybean (Glycine max); [13]", "value": 60, "unit": "%"}, {"measurement": "plant injury at 125 g/ha", "setting": "soybean (Glycine max); pre-emergence, Preemergence, scale 0 to 100, read-out: Plant response rating, Soybean", "value": 65, "unit": "%"}, {"measurement": "pest or weed control at 16 g/ha", "setting": "[3]; [14]", "value": 0, "unit": "%"}, {"measurement": "pest or weed control at 31 g/ha", "setting": "[3]; [14]", "value": 0, "unit": "%"}, {"measurement": "pest or weed control at 62 g/ha", "setting": "[3]; [15]", "value": 0, "unit": "%"}, {"measurement": "pest or weed control at 125 g/ha", "setting": "[3]; [15]", "value": 30, "unit": "%"}, {"measurement": "pest or weed control at 16 g/ha", "setting": "[3]; [16]", "value": 0, "unit": "%"}, {"measurement": "pest or weed control at 31 g/ha", "setting": "[3]; [16]", "value": 0, "unit": "%"}, {"measurement": "pest or weed control at 62 g/ha", "setting": "[3]; [16]", "value": 0, "unit": "%"}, {"measurement": "pest or weed control at 125 g/ha", "setting": "[3]; pre-emergence, Preemergence, scale 0 to 100, read-out: Plant response rating, Cupgrass, Woolly", "value": 50, "unit": "%"}, {"measurement": "pest or weed control at 16 g/ha", "setting": "[4]; [17]", "value": 0, "unit": "%"}, {"measurement": "pest or weed control at 31 g/ha", "setting": "[4]; [17]", "value": 0, "unit": "%"}, {"measurement": "pest or weed control at 62 g/ha", "setting": "[4]; [18]", "value": 0, "unit": "%"}, {"measurement": "pest or weed control at 125 g/ha", "setting": "[4]; [18]", "value": 0, "unit": "%"}, {"measurement": "pest or weed control at 16 g/ha", "setting": "[4]; [19]", "value": 0, "unit": "%"}, {"measurement": "pest or weed control at 31 g/ha", "setting": "[4]; [19]", "value": 0, "unit": "%"}, {"measurement": "pest or weed control at 62 g/ha", "setting": "[4]; [19]", "value": 0, "unit": "%"}, {"measurement": "pest or weed control at 125 g/ha", "setting": "[4]; pre-emergence, Preemergence, scale 0 to 100, read-out: Plant response rating, Nutsedge, Yellow", "value": 0, "unit": "%"}, {"measurement": "pest or weed control at 16 g/ha", "setting": "[5]; 16 g ai/ha, read-out: Plant response rating (scale of 0 to 100), Chickweed", "value": 0, "unit": "%"}, {"measurement": "pest or weed control at 62 g/ha", "setting": "[5]; 62 g ai/ha, scale 0 to 100 (0 no effect, 100 complete control), read-out: Chickweed plant response rating", "value": 40, "unit": "%"}, {"measurement": "pest or weed control at 125 g/ha", "setting": "[5]; 125 g ai/ha, scale 0 to 100 (0 no effect, 100 complete control), read-out: Chickweed plant response rating", "value": 85, "unit": "%"}]}
